For test [1], the target named is T1, native Aβ aggregates in human AD brain tissue sections (Homo sapiens, UniProt P05067).
T1 construct: native Aβ aggregates in human AD brain tissue samples; from tissue; host or cells: human AD brain tissue sections
Nature of the test: Aβ in vitro displacement assay (selectivity counterscreen, [3H]Example 3 autoradiography). Type of test: binding. The following applies: 3 nM [3H]Example 3, human AD brain sections; for inhibition at 1 µM: 1 μM compound, read-out: sel. counterscreen PCT_INHIB AD @ 1 μM (% displacement of [3H]Example 3); for inhibition at 3 µM: 3 μM compound, read-out: sel. counterscreen PCT_INHIB AD @ 3 μM.

Test [2] deals with T2, native aSyn aggregates in A30P transgenic mouse brain sections (Homo sapiens, UniProt P37840, A30P).
T2 construct: from tissue; host or cells: brain sections (midbrain and pons as ROI) of A30P transgenic mice, line B6.D2-Tg(Thy1-SNCA*30P)31Pjk
Nature of the test: aSyn in vitro displacement assay ([3H]Example-3 autoradiography). Format: binding, mutant human aSyn gene). The following applies: 3 nM [3H]Example-3, A30P transgenic mouse brain sections; for inhibition at 1 µM: 1 μM compound, read-out: PCT_INHIB A30P @ 1 μM (% displacement of [3H]Example-3); for inhibition at 3 µM: 3 μM compound, read-out: PCT_INHIB A30P @ 3 μM.

T1 sequence (P05067 672-713 limits assumed): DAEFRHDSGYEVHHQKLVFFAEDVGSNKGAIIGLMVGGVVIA

As to `O=C(Nc1cnc(N2CCN(c3ccccn3)CC2)cn1)c1ccc(N2CCOCC2)cc1` [Example 88, 4-Morpholino-N-(5-(4-(pyridin-2-yl)piperazin-1-yl)pyrazin-2-yl)benzamide], the inhibition at 1 µM was found to be 71% in test [1] and 87% in test [2].
For the compound `O=C(Nc1ccc(N2CCN(c3ccccn3)CC2)cc1)c1ccc2c(c1)OCCO2` [Example 14, N-(4-(4-(Pyridin-2-yl)piperazin-1-yl)phenyl)-2,3-dihydrobenzo[b][1,4]dioxine-6-carboxamide], the results for the inhibition at 1 µM in test [1] and in test [2] were 96% and 91%, respectively.
With `C#CCOCCOc1ccc(C(=O)Nc2ccc(N3CCN(c4ccccn4)CC3)cc2)cc1` [Example 178, 4-(2-Prop-2-ynoxyethoxy)-N-[4-[4-(2-pyridyl)piperazin-1-yl]phenyl]benzamide], the inhibition at 3 µM in test [1] was 93%; in test [2] it was 97%.
For the compound `Cc1ccc(C(=O)Nc2ccc(N3CCN(c4ccccn4)CC3)cn2)c(F)c1` [Example 52, 2-Fluoro-4-methyl-N-(5-(4-(pyridin-2-yl)piperazin-1-yl)pyridin-2-yl)benzamide], the figures for the inhibition at 1 µM in test [1] and in test [2] were 95% and 92%, respectively.
As to `COc1ccc(C(=O)Nc2ccc(N3CCN(c4ccc(C#N)cc4)CC3)cc2)cc1` [Example 57, N-[4-[4-(4-Cyanophenyl)piperazin-1-yl]phenyl]-4-methoxy-benzamide], the inhibition at 1 µM in test [1] was determined as 101%; in test [2], 102%.
In the case of `COc1ccc(C(=O)Nc2ccc(N3CCN(c4ccc(C#N)c(OC)c4)CC3)cc2)cc1` [Example 140, N-(4-(4-(4-Cyano-3-methoxyphenyl)piperazin-1-yl)phenyl)-4-methoxybenzamide], the inhibition at 1 µM is 93% in test [1] and 94% in test [2].
The matching figures for `O=C(Nc1ccc(N2CCN(c3nccs3)CC2)cc1)c1ccc(OCC(O)CF)cc1` (racemic) [Example 130, rac-4-(3-Fluoro-2-hydroxypropoxy)-N-(4-(4-(thiazol-2-yl)piperazin-1-yl)phenyl)benzamide]: 87% and 81%.
`COc1ccc(C(=O)Nc2ccc(N3CCN(c4cc(OC)ccn4)CC3)cc2)cc1` [Example 82, 4-Methoxy-N-[4-[4-(4-methoxy-2-pyridyl)piperazin-1-yl]phenyl]benzamide]: the inhibition at 1 µM in test [1] stood at 106%; in test [2], 91%.
Consider `N#Cc1ccc(N2CCN(c3ccc(NC(=O)c4ccc(OCCF)cc4)cc3)CC2)nc1` [Example 116, N-[4-[4-(5-Cyano-2-pyridyl)piperazin-1-yl]phenyl]-4-(2-fluoroethoxy)benzamide], for which the inhibition at 1 µM in test [1] stood at 85%; in test [2], 81%.
As to `COc1ccc(C(=O)Nc2ccc(N3CCN(c4ccccn4)CC3)cc2)c(F)c1` [Example 1, 2-Fluoro-4-methoxy-N-(4-(4-(pyridin-2-yl)piperazin-1-yl)phenyl)benzamide], the inhibition at 1 µM is 95% in test [1] and 100% in test [2].
For `COc1ccc(C(=O)Nc2ccc(N3CCN(c4ccccn4)CC3)cn2)cc1` [Example 43, 4-Methoxy-N-(5-(4-(pyridin-2-yl)piperazin-1-yl)pyridin-2-yl)benzamide], the inhibition at 1 µM in test [1] stood at 99%; in test [2], 84%.
Turning to `COc1ccc(C(=O)Nc2ccc(N3CCN(c4ccc(C#N)cc4)CC3)cc2)nc1` [Example 166, N-(4-(4-(4-Cyanophenyl)piperazin-1-yl)phenyl)-5-methoxypicolinamide], the inhibition at 1 µM in test [1] amounted to 70%; in test [2] it was 81%.
On to `O=C(Nc1ccc(N2CCN(c3nccs3)CC2)cc1)c1ccc(OCCOCCOCCF)cc1` [Example 120, 4-[2-[2-(2-Fluoroethoxy)ethoxy]ethoxy]-N-[4-(4-thiazol-2-ylpiperazin-1-yl)phenyl]benzamide], for which the inhibition at 1 µM in test [1] stood at 93%; in test [2], 81%.
Consider `COc1cccc(C(=O)Nc2ccc(N3CCN(c4ccc(C#N)cc4)CC3)cc2)n1` [Example 93, N-(4-(4-(4-Cyanophenyl)piperazin-1-yl)phenyl)-6-methoxypicolinamide], for which the inhibition at 1 µM in test [1] was found to be 89%; in test [2], 99%.
Take `O=C(Nc1ccc(N2CCN(c3ccccn3)CC2)cc1)c1ccc(O)cc1` [Example 2, 4-hydroxy-N-(4-(4-(pyridin-2-yl)piperazin-1-yl)phenyl)benzamide]: the inhibition at 1 µM in test [1] turned out to be 93%; in test [2], 85%.
In the case of `O=C(Nc1ccc(N2CCN(c3ccccn3)CC2)cc1)c1ccc2c(c1)OCO2` [Example 15, N-(4-(4-(Pyridin-2-yl)piperazin-1-yl)phenyl)benzo[d][1,3]dioxole-5-carboxamide], the inhibition at 1 µM was 98% in test [1] and 94% in test [2].
The matching figures for `COc1ccc(C(=O)Nc2cnc(N3CCN(c4ccccn4)CC3)nc2)cc1` [Example 59, 4-Methoxy-N-(2-(4-(pyridin-2-yl)piperazin-1-yl)pyrimidin-5-yl)benzamide]: 97% and 85%.
As for `COc1ccc(C(=O)Nc2ccc(N3CCN(c4ccnc(OC)c4)CC3)cc2)cc1` [Example 155, 4-Methoxy-N-(4-(4-(2-methoxypyridin-4-yl)piperazin-1-yl)phenyl)benzamide], the inhibition at 1 µM in test [1] was 97%; in test [2] it was 85%.
As for `Cc1ccc(C(=O)Nc2ccc(N3CCN(c4ccccn4)CC3)cn2)cc1` [Example 45, 4-Methyl-N-(5-(4-(pyridin-2-yl)piperazin-1-yl)pyridin-2-yl)benzamide], the inhibition at 1 µM in test [1] was 98%; in test [2], 97%.
Taken in the same sequence, the figures for `N#Cc1ccc(N2CCN(c3ccc(NC(=O)c4ccc(OCC(O)CF)cc4)cc3)CC2)cc1` (racemic) [Example 131, rac-N-(4-(4-(4-Cyanophenyl)piperazin-1-yl)phenyl)-4-(3-fluoro-2-hydroxypropoxy)benzamide] were 90% and 88%.
For `COc1ccc(C(=O)Nc2ccc(N3CCN(c4ccncn4)CC3)cc2)cc1` [Example 56, 4-Methoxy-N-{4-[4-(pyrimidin-4-yl)piperazin-1-yl]phenyl}benzamide], the inhibition at 1 µM in test [1] came to 98%; in test [2], 88%.
On to `COc1ccc(C(=O)Nc2ccc(N3CCN(c4cccc(C#N)c4)CC3)cc2)cc1` [Example 103, N-[4-[4-(3-Cyanophenyl)piperazin-1-yl]phenyl]-4-methoxy-benzamide], for which the inhibition at 1 µM in test [1] worked out at 99%; in test [2], 100%.
As to `COc1ccc(C(=O)Nc2ccc(N3CCN(c4ccc(C)nc4)CC3)cc2)cc1` [Example 156, 4-Methoxy-N-(4-(4-(6-methylpyridin-3-yl)piperazin-1-yl)phenyl)benzamide], the inhibition at 1 µM in test [1] stood at 76%; in test [2] it was 81%.
For `COc1ccc(C(=O)Nc2ccc(N3CCN(c4ccccn4)CC3)cc2)cc1` [Example 3, 4-Methoxy-N-[4-(4-pyridin-2-ylpiperazin-1-yl)phenyl]benzamide], the inhibition at 3 µM in test [1] and in test [2] was 100% each time.
With `CN1CCOc2cc(C(=O)Nc3ccc(N4CCN(c5ccccn5)CC4)cc3)ccc21` [Example 42, 4-Methyl-N-(4-(4-(pyridin-2-yl)piperazin-1-yl)phenyl)-3,4-dihydro-2H-benzo[b][1,4]oxazine-7-carboxamide], the values for the inhibition at 1 µM in test [1] and in test [2] were 94% and 91%, respectively.
The matching figures for `COc1ccc(C(=O)Nc2ccc(N3CCN(c4ccccn4)CC3)cc2)nc1` [Example 78, 5-Methoxy-N-(4-(4-(pyridin-2-yl)piperazin-1-yl)phenyl)picolinamide]: 94% and 98%.
The matching figures for `COc1ccc(C(=O)Nc2ccc(N3CCN(c4ccc(C#N)cn4)CC3)c(C)c2)cc1` [Example 113, N-[4-[4-(5-Cyano-2-pyridyl)piperazin-1-yl]-3-methyl-phenyl]-4-methoxy-benzamide]: 79% and 87%.
Turning to `COc1ccc(C(=O)Nc2ccc(N3CCN(c4cc(C)c(C#N)cn4)CC3)cc2)cc1` [Example 151, N-(4-(4-(5-Cyano-4-methylpyridin-2-yl)piperazin-1-yl)phenyl)-4-methoxybenzamide], the inhibition at 1 µM in test [1] stood at 91%; in test [2], 93%.
With `Cc1cccc(C(=O)Nc2cnc(N3CCN(c4ccccn4)CC3)nc2)c1` [Example 64, 3-Methyl-N-(2-(4-(pyridin-2-yl)piperazin-1-yl)pyrimidin-5-yl)benzamide], the inhibition at 1 µM in test [1] stood at 92%; in test [2] it was 88%.
In the case of `COc1ccc(C(=O)Nc2ccc(N3CCN(c4ccccn4)CC3)c(F)c2)cc1` [Example 106, N-[3-Fluoro-4-[4-(2-pyridyl)piperazin-1-yl]phenyl]-4-methoxy-benzamide], the values for the inhibition at 1 µM in test [1] and in test [2] were 88% and 82%, respectively.
The matching figures for `N#Cc1ccc(N2CCN(c3ccc(NC(=O)c4ccc(OCC(O)CF)cc4)cc3)CC2)nc1` (racemic) [Example 129, rac-N-(4-(4-(5-Cyanopyridin-2-yl)piperazin-1-yl)phenyl)-4-(3-fluoro-2-hydroxypropoxy)benzamide]: 94% and 86%.

The record behind these values is US11541132B2, “Radiolabeled compounds” (Hoffmann-La Roche Inc., priority 2017, dated 2023).
